This is an account of results in PubChem BioAssay AID179 (DTP/NCI, 2004).

pEC50, pIC50: −log10 of the molar value. Several values for one entry are separate records, joined by “and”; a condition that tells them apart may be missing. Equal entries are not always repeated. Activity calls are given as the source filed them.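 The calls were made as follows: active = compounds giving half or more protection of infected cells from virus-caused growth loss, again on retest; inactive = the rest.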 Where a SMILES comes first, the peptide text is derived from it. [ ]: non-standard residue; d: D form. The star is where a group is joined. Phe(2-OMe) = COc1ccccc1C[CH](N)C(=O)O; Myristoyl = CCCCCCCCCCCCCC(=O)*; Cbz = O=C(OCc1ccccc1)*; OBn = c1ccc(CO*)cc1

The assay deals with CEM cells HIV-1 protection, formazan growth assay. In words: NCI AIDS Antiviral Assay. The conditions noted are these: for pIC50: measured here: growth of uninfected CEM cells. The procedure, abridged:
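Category rules: moderately active means at least 50% protection on retest, and confirmed active means 100% protection reproducibly. The underlying data came from a formazan growth assay in HIV-1-infected CEM cells.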

The term pEC50 denotes the negative decadic logarithm of the EC50, by convention in mol/L. In general, pIC50 refers to −log10 of the IC50, conventionally taken in molar units. Lower therefore signals a large IC50. In the case of `C1=C(c2ccccc2)CN(c2ccccc2)OC1`, the pEC50 is less than 4.24 and the pIC50 is less than 4.24.

Take `CCC(=O)NI1OC(=O)c2ccccc21`: the pEC50 is less than 3.70 and the pIC50 was 4.09.

Turning to `CO/C(=N\N=C\c1ccc(C(F)(F)F)cc1)c1ccncc1`, the pEC50 is less than 3.93 and the pIC50 was 4.16.

Regarding `CC1(c2cc(Cl)c(Cl)cc2Cl)NC(=O)NC1=O` (stereo unspecified), the result was inactive.

For `Cc1cn([C@H]2CC3C(CON3C)O2)c(=O)[nH]c1=O` (stereo partly specified), the pEC50 was less than 3.70 and the pIC50 was less than 3.70.

Turning to `CC(C)(C)OC(=O)N1Cc2cc(O)ccc2C[C@H]1C(=O)O`, the pEC50 is less than 3.70 and the pIC50 is less than 3.70.

`Cc1cc(NC(=O)c2ccc(NC(=O)c3ccccc3)cc2)ccc1N=Nc1ccc(N=Nc2ccc3c(O)cc(S(=O)(=O)O)cc3c2)c2cc(S(=O)(=O)O)ccc12`: the pEC50 is 5.21 and the pIC50 is 4.30.

Regarding `CC1=CCC(Br)C(C)(C)C12CCC(C)(Cl)C(Br)C2` (stereo unspecified), the pEC50 was less than 3.70 and the pIC50 was 4.53.

Turning to `CC1(C)OC2OC(C(COS(=O)(=O)C(F)(F)F)N=[N+]=[N-])C(OC(=O)c3ccccc3)C2O1` (stereo unspecified), the pEC50 was less than 3.70 and the pIC50 was less than 3.70.

Consider `CC1(C)CNC[C@](C)(OCc2ccccc2)C(=O)[N-]C(C)(C)CNC[C@@](C)(OCc2ccccc2)C(=O)[N-]1.[Ni+2]`, for which the pEC50 was less than 3.70 and the pIC50 was 3.82.

In the case of `O=C(Nc1ccccc1)c1cc(S(=O)(=O)N2CCNC2=O)c(S)cc1Cl`, the pEC50 is 3.95 and the pIC50 is 3.88.

As for `C=CCc1ccccc1OP(=O)(Oc1ccc(C(C)(C)C)cc1)Oc1ccc(C(C)(C)C)cc1`, the result was inactive.

Turning to `COc1ccc(C2=[N+]([O-])c3ccccc3C2=O)cc1`, the outcome was inactive.

Regarding `COC1/C=C/OC2(C)Oc3c(C)c(O)c4c(O)c(c(C=NNC(=O)C(CO)(c5ccccc5)c5ccccc5)c(O)c4c3C2=O)NC(=O)/C(C)=C/C=C/C(C)C(O)C(C)C(O)C(C)C(OC(C)=O)C1C` (stereo unspecified), the pEC50 is less than 3.70 and the pIC50 is 4.49.

Regarding `COC(=O)C(Cc1ccccc1OC)NC(=O)C(CC(=O)OCc1ccccc1)NC(=O)OCc1ccccc1` (stereo unspecified) (Cbz-Asp(OBn)-[Phe(2-OMe)]-OMe; configuration not given here), the pEC50 was less than 3.70 and the pIC50 is 4.52.

As to `CCC(NC(C)c1ccccc1)C(O)c1ccc(OCc2ccccc2)c(OCc2ccccc2)c1` (stereo unspecified), the pEC50 is less than 3.70 and the pIC50 is 4.97.

As to `C[N+]1(CCCl)CCc2ccc([N+](=O)[O-])cc2C1` (stereo unspecified), the pEC50 was less than 3.70 and the pIC50 was less than 3.70.

Take `CC1OC(OCC2COC(O)(Oc3c(-c4ccc(O)c(O)c4)oc4cc(O)cc(O)c4c3=O)C(O)C2O)C(O)C(O)C1O` (stereo unspecified): the result was inactive.

As to `O=[N+]([O-])c1ccc(Cl)c([N+](=O)[O-])c1`, the pEC50 is less than 3.70 and the pIC50 is 5.48.

For `COc1ccc(NC(=O)C(C#N)=C(SC)SC)cc1`, the pEC50 is less than 3.70 and the pIC50 is 5.10.

Take `CC(=O)Nc1cc(N=Nc2ccc(N=Nc3ccc(NC(=O)c4ccc(N)cc4)cc3C)cc2C)c(S(=O)(=O)O)cc1N=Nc1ccc(S(=O)(=O)O)cc1`: the pEC50 is 4.89 and the pIC50 was 3.81.

Consider `CCCCCCCCCCCCCC(=O)NCC(=O)NC(C)C(=O)NC(CCCNC(=N)N)C(=O)NC(C)C(=O)NC(CO)C(=O)NC(C(=O)NC(CC(C)C)C(=O)NC(CO)C(=O)NCC(=O)NCC(=O)NC(CCC(=O)O)C(=O)NC(CC(C)C)C(=O)NC(CC(=O)O)C(=O)NC(CCCNC(=N)N)C(=O)NC(Cc1c[nH]c2ccccc12)C(=O)NC(Cc1ccc(O)cc1)C(N)=O)C(C)C` (stereo unspecified) (Myristoyl-GARASVLSGGELDRWY-NH2; configuration not given here), for which the pEC50 is less than 3.89 and the pIC50 was less than 3.89.

Regarding `CN1CCC2(CC1)SSC1(CCN(C)CC1)S2`, the pEC50 was less than 3.70 and the pIC50 was 3.72.

As for `O=C(CCBr)N1CCN(C(=O)CCBr)CC1`, the pEC50 was less than 3.15 and the pIC50 is 5.03.

`[C-]#[O+].[C-]#[O+].[C-]#[O+].[Mo].c1ccc([PH+](CC[As](c2ccccc2)c2ccccc2)CC[As](c2ccccc2)c2ccccc2)cc1`: the result was inactive.

With `CC[C@@]12C=CC(=S)N(CCSc3ccccc3)[C@@H]1c1c(n(S(=O)(=O)c3ccc(OC)cc3)c3ccccc13)CC2`, the pEC50 was less than 3.90 and the pIC50 was less than 3.90.

With `C/C(=N\N=C(N)N)c1sc(-c2nc(C)c(/C(C)=N/N=C(N)N)s2)nc1C`, the pEC50 is less than 3.90 and the pIC50 was less than 3.90.

For `CCc1ccc(/C(=N\NC(N)=S)C2CC2)cc1`, the pEC50 is less than 3.70 and the pIC50 is 3.96.

In the case of `CN(CCn1cnc2c1c(=O)n(C)c(=O)n2C)C1CCCCC1`, the pEC50 is less than 3.70 and the pIC50 was less than 3.70.

Consider `Cc1cc(S(=O)(=O)NC2=NCC(C)(C)CN2)c(S)cc1Cl`, for which the pEC50 was less than 3.70 and the pIC50 is 4.06.

Take `Cc1c(Cl)ccc2c1NC(=O)C2(O)CC(=O)c1ccc2ccccc2c1` (stereo unspecified): the pEC50 was less than 4.71 and the pIC50 is less than 4.71.

Turning to `O=C(Nc1ccc(Cl)cc1Cl)C(=O)Nn1c(=S)[nH]c2ccccc2c1=O`, the result was inactive.

As to `CCCCCCCCCC=C(c1cc(Cl)c(O)c(C(=O)O)c1)c1cc(Cl)c(O)c(C(=O)O)c1`, the pEC50 was 4.34 and the pIC50 is 4.31.

With `CCN(CC)CCC(=O)c1ccc(C)cc1`, the pEC50 is less than 2.21 and the pIC50 was 3.48.

As for `Cc1cc(C)nc(NS(=O)(=O)c2ccc(N=c3c4ccccc4n(C)c4ccccc34)cc2)n1`, the result was inactive.

Take `C=Cc1ccccc1N=NC(C(=O)OC)=P(c1ccccc1)(c1ccccc1)c1ccccc1`: the pEC50 was less than 5.93 and the pIC50 was less than 5.93.

In the case of `Cc1nc(N)c2cnn(C)c2n1`, the pEC50 was less than 2.82 and the pIC50 is 3.15.

In the case of `O=C1C(c2ccccc2)=C(c2ccccc2)[C@H](c2ccccc2)[C@]1(Cc1nnn(-c2ccc([N+](=O)[O-])cc2)c1N1CCOCC1)c1ccccc1`, the result was inactive.

`CC1C(c2ccc3c(c2)OCO3)c2cc3c(cc2OC1N1CCCC1)OCO3` (stereo unspecified): the pEC50 was less than 4.00 and the pIC50 is 4.32.

In the case of `O=c1oc2ccccc2c(O)c1Cc1c(O)c2ccccc2oc1=O`, the pEC50 was less than 3.70; the pIC50 was 4.26 and < 3.70.

`N#CC1(c2nc3ccccc3o2)C(=O)C(=O)N(c2ccc(Cl)c(Cl)c2)C(=O)C1=O`: the pEC50 was less than 3.52 and the pIC50 is 3.55.

Take `O=C(O)C1COCN1C(=O)c1ccccc1SSc1ccccc1C(=O)N1COCC1C(=O)O` (stereo unspecified): the pEC50 was less than 3.70 and the pIC50 is less than 3.70.

As for `OC[C@H]1N[C@H](CO)[C@@H](O)[C@H]1O`, the pEC50 was less than 3.70 and the pIC50 is 3.83.

With `CC(NC(=O)NC(C)(C)C)NC(=O)C(N)CC(=O)O` (stereo unspecified), the pEC50 was less than 3.70 and the pIC50 is less than 3.70.

As to `Cc1ccc(C)n1CCN1CCNCC1`, the pEC50 was less than 3.70 and the pIC50 was 3.79.

As to `CC(C)(C)C(=O)C(C(=O)C(C)(C)C)C(=O)C(C)(C)C`, the result was inactive.

For `COC(=O)C(Cc1ccccc1)C(=O)NC(CNC(=O)OCc1ccccc1)C(=O)OCc1ccccc1` (stereo unspecified), the pEC50 is less than 3.70 and the pIC50 is 4.53.

With `CC1=Nc2ccccc2C12C(c1ccccc1)C(c1ccccc1)C(=O)N1c3ccccc3CC12` (stereo unspecified), the pEC50 is less than 4.10 and the pIC50 was less than 4.10.

For the molecule `COC(=O)/C(C#N)=C\N1CCNC1=S`, the pEC50 is less than 3.70 and the pIC50 is less than 3.70.

For the molecule `OC(C1CCCC1=N/N=C1/CCCC1C(O)(C(F)(F)Cl)C(F)(F)Cl)(C(F)(F)Cl)C(F)(F)Cl` (stereo unspecified), the pEC50 is less than 4.30 and the pIC50 is less than 4.30.

Turning to `O=C(O)C1(Cc2ccccc2)Cc2ccccc2C1`, the pEC50 was less than 3.70 and the pIC50 is less than 3.70.

For the molecule `C[C@]12CC[C@@H]3c4cc(Br)c(O)c(Br)c4CC[C@H]3[C@@H]1CCC2=O`, the pEC50 is less than 3.70 and the negative-log IC50 (pIC50) was 4.48.

Turning to `COc1ccc(CCn2cnc3ccccc32)cc1`, the pEC50 was less than 3.70 and the pIC50 is less than 3.70.

As to `COC(=O)c1c(C(=O)OC)c2c(-c3ccccc3)cc3cccc1n32`, the pEC50 is less than 5.09 and the pIC50 was less than 5.09.

As for `O=C1C[C@@H]2[C@@H](C=CC23CCCC3)N1O`, the result was inactive.

In the case of `COC(=O)/C=C1\SC2(OC1=Nc1ccccc1)C1CC3CC(C1)CC2C3` (stereo unspecified), the pEC50 was less than 3.70 and the pIC50 is less than 3.70.

As to `O=c1[nH]c2ccccc2c(O)c1-[n+]1ccccc1`, the pEC50 is less than 3.70 and the pIC50 was less than 3.70.

Consider `Cc1cc(C)c2cc(=O)oc-2c(C)c1`, for which the pEC50 was less than 4.03 and the pIC50 is less than 4.03.

As to `c1ccc(-c2nc3nc4ccccc4nc3nc2-c2cccnc2)nc1`, the pEC50 is less than 5.09 and the pIC50 is less than 5.09.

In the case of `C=C[C@@H]1C(CO)=CCC2[C@H]1CCC1C(C)(C)C(=O)CC[C@]21C` (stereo partly specified), the pEC50 is less than 3.70 and the pIC50 was less than 3.70.

For `CC1(C)C(=O)/C=C\C(=O)C(C)(C)C(=O)/C=C\C(=O)C(C)(C)C2=CC=C(O2)C(C)(C)C(=O)/C=C\C1=O`, the result was inactive.

As for `O=C1OC2(c3ccccc31)c1ccccc1-c1ccccc12`, the pEC50 is less than 4.18 and the pIC50 was less than 4.18.

Consider `CCCCCCCCCCCCCCCCCC(=O)OCC(CO)OC(=O)CCCCCCCCCCCCCCCCC` (stereo unspecified), for which the result was inactive.

Regarding `CS(=O)(=O)NOCCCCONS(C)(=O)=O`, the pEC50 is less than 3.04 and the pIC50 was less than 3.04.

Turning to `[NH-]C(CCC(N)=O)C(=O)O.[NH-]C(CCCCN)C(=O)O.[Zn+2]` (stereo unspecified), the pEC50 was less than 3.70 and the pIC50 is less than 3.70.

In the case of `N/N=C(\N)c1ccc(NC(=O)c2ccc(C(=O)Nc3ccc(/C(N)=N/N)cc3)cc2)cc1`, the pEC50 is less than 3.70 and the pIC50 is 4.03.

With `CCOC(=O)C(NC(=O)Nc1ccc(Cl)cc1)(OC)C(F)(F)F` (stereo unspecified), the outcome was inactive.
